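Dose response: 5 concentrations. Exposure: 48 h. Format: 96-well plates. Endpoint: linear interpolation; highest concentration if not reached. Abbreviation: GI50, concentration required for 50% inhibition of growth. TGI denotes the concentration required for complete inhibition of growth.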
Assays:
Assay in all cases: NCI tumour cell line growth inhibition, 48 h; in the data active = GI50 below about 0.43 µM; inactive = the rest
NCI-H226 lung = system: NCI-H226 lung
MOLT-4 leukemia = system: MOLT-4 leukemia
MDA-MB-435 = system: MDA-MB-435
PC-3 prostate = system: PC-3 prostate
HL-60(TB) leukemia = system: HL-60(TB) leukemia
SN12C renal = system: SN12C renal
TK-10 renal = system: TK-10 renal
KM12 colon = system: KM12 colon
NCI/ADR-RES ovarian = system: NCI/ADR-RES ovarian
UACC-62 melanoma = system: UACC-62 melanoma
MALME-3M melanoma = system: MALME-3M melanoma
DU-145 prostate = system: DU-145 prostate
OVCAR-8 ovarian = system: OVCAR-8 ovarian
UO-31 renal = system: UO-31 renal
SW-620 colon = system: SW-620 colon
ACHN renal = system: ACHN renal
BT-549 breast = system: BT-549 breast
SF-268 CNS = system: SF-268 CNS
SK-MEL-5 melanoma = system: SK-MEL-5 melanoma
SK-OV-3 ovarian = system: SK-OV-3 ovarian
HCT-15 colon = system: HCT-15 colon
CCRF-CEM leukemia = system: CCRF-CEM leukemia
A498 renal = system: A498 renal
SF-295 CNS = system: SF-295 CNS
COLO 205 colon = system: COLO 205 colon
SK-MEL-2 melanoma = system: SK-MEL-2 melanoma
HCT-116 colon = system: HCT-116 colon
786-0 renal = system: 786-0 renal
NCI-H23 lung = system: NCI-H23 lung
U251 CNS = system: U251 CNS
MDA-MB-231 breast = system: MDA-MB-231 breast
SR leukemia = system: SR leukemia
OVCAR-4 ovarian = system: OVCAR-4 ovarian
CAKI-1 renal = system: CAKI-1 renal
HT29 colon = system: HT29 colon
HS 578T breast = system: HS 578T breast
M14 melanoma = system: M14 melanoma
OVCAR-3 ovarian = system: OVCAR-3 ovarian
K-562 leukemia = system: K-562 leukemia
HOP-92 NSCLC = system: HOP-92 NSCLC
OVCAR-5 ovarian = system: OVCAR-5 ovarian
LOX IMVI melanoma = system: LOX IMVI melanoma
HCC-2998 colon = system: HCC-2998 colon
SNB-75 CNS = system: SNB-75 CNS
NCI-H522 lung = system: NCI-H522 lung
SK-MEL-28 melanoma = system: SK-MEL-28 melanoma
MCF7 breast = system: MCF7 breast
RXF 393 renal = system: RXF 393 renal
IGROV1 ovarian = system: IGROV1 ovarian
HOP-62 NSCLC = system: HOP-62 NSCLC
RPMI-8226 leukemia = system: RPMI-8226 leukemia
SNB-19 CNS = system: SNB-19 CNS
T-47D breast = system: T-47D breast
NCI-H460 lung = system: NCI-H460 lung
UACC-257 melanoma = system: UACC-257 melanoma
A549 NSCLC = system: A549 NSCLC
SF-539 CNS = system: SF-539 CNS

O=C1NC(=NCc2ccccc2Br)S/C1=C\c1ccc2ncccc2c1
> 21.4 µM: TGI (A498 renal)
> 23.4 µM: TGI (HL-60(TB) leukemia)
> 23.7 µM: TGI (SNB-75 CNS)
> 22 µM: TGI (UO-31 renal)
> 18.6 µM: TGI (SK-OV-3 ovarian)
24.5 µM: TGI (T-47D breast)
inactive: GI50 (NCI-H226 lung) 8.06 µM | GI50 (MOLT-4 leukemia) 10 µM | GI50 (MDA-MB-435) 5.62 µM | GI50 (PC-3 prostate) 15.2 µM | GI50 (HL-60(TB) leukemia) 7.96 µM | GI50 (SN12C renal) 9.31 µM | GI50 (TK-10 renal) 14.8 µM | GI50 (KM12 colon) 10.6 µM | GI50 (NCI/ADR-RES ovarian) 11.9 µM | GI50 (UACC-62 melanoma) 11.8 µM | GI50 (MALME-3M melanoma) > 15.3 µM | GI50 (DU-145 prostate) 8.69 µM | GI50 (OVCAR-8 ovarian) 9.14 µM | GI50 (UO-31 renal) 8.08 µM | GI50 (SW-620 colon) 6.71 µM | GI50 (ACHN renal) 10.6 µM | GI50 (BT-549 breast) 6.32 µM | GI50 (SF-268 CNS) 7.83 µM | GI50 (SK-MEL-5 melanoma) 10.4 µM | GI50 (SK-OV-3 ovarian) 8.11 µM | GI50 (HCT-15 colon) 4.36 µM | GI50 (CCRF-CEM leukemia) 7.26 µM | GI50 (A498 renal) 5.55 µM | GI50 (SF-295 CNS) 8.03 µM | GI50 (COLO 205 colon) 5.4 µM | GI50 (SK-MEL-2 melanoma) 7.66 µM | GI50 (HCT-116 colon) 2.74 µM | GI50 (786-0 renal) 9.43 µM | GI50 (NCI-H23 lung) 11.5 µM | GI50 (U251 CNS) 4.77 µM | GI50 (MDA-MB-231 breast) 15 µM | GI50 (SR leukemia) 1.03 µM | GI50 (OVCAR-4 ovarian) 7.35 µM | GI50 (CAKI-1 renal) 7.18 µM | GI50 (HT29 colon) 10.7 µM | GI50 (HS 578T breast) 6.28 µM | GI50 (M14 melanoma) 11.1 µM | GI50 (OVCAR-3 ovarian) 10 µM | GI50 (K-562 leukemia) 8.19 µM | GI50 (HOP-92 NSCLC) 6.89 µM | GI50 (OVCAR-5 ovarian) > 25 µM | GI50 (LOX IMVI melanoma) 4.7 µM | GI50 (HCC-2998 colon) 24.3 µM | GI50 (SNB-75 CNS) 3.82 µM | GI50 (NCI-H522 lung) 6.22 µM | GI50 (SK-MEL-28 melanoma) > 20.5 µM | GI50 (MCF7 breast) 4.07 µM | GI50 (RXF 393 renal) 8.07 µM | GI50 (IGROV1 ovarian) 7.68 µM | GI50 (HOP-62 NSCLC) 5.93 µM | GI50 (RPMI-8226 leukemia) 8.74 µM | GI50 (SNB-19 CNS) 9.4 µM | GI50 (T-47D breast) 6.78 µM | GI50 (NCI-H460 lung) 6.1 µM | GI50 (UACC-257 melanoma) 17.8 µM | GI50 (A549 NSCLC) 5.99 µM | GI50 (SF-539 CNS) 5.84 µM
> 23.3 µM: TGI (HOP-92 NSCLC)
> 17.5 µM: TGI (HOP-62 NSCLC)
24.4 µM: TGI (HS 578T breast)
> 21.2 µM: TGI (IGROV1 ovarian)
19 µM: TGI (SK-MEL-2 melanoma)
8.39 µM: TGI (SR leukemia)
> 25 µM: TGI (NCI-H226 lung) | TGI (MOLT-4 leukemia) | TGI (MDA-MB-435) | TGI (PC-3 prostate) | TGI (SN12C renal) | TGI (TK-10 renal) | TGI (KM12 colon) | TGI (NCI/ADR-RES ovarian) | TGI (UACC-62 melanoma) | TGI (MALME-3M melanoma) | TGI (DU-145 prostate) | TGI (OVCAR-8 ovarian) | TGI (SW-620 colon) | TGI (ACHN renal) | TGI (SF-268 CNS) | TGI (SK-MEL-5 melanoma) | TGI (HCT-15 colon) | TGI (CCRF-CEM leukemia) | TGI (SF-295 CNS) | TGI (COLO 205 colon) | TGI (HCT-116 colon) | TGI (786-0 renal) | TGI (NCI-H23 lung) | TGI (U251 CNS) | TGI (MDA-MB-231 breast) | TGI (OVCAR-4 ovarian) | TGI (CAKI-1 renal) | TGI (HT29 colon) | TGI (M14 melanoma) | TGI (OVCAR-3 ovarian) | TGI (K-562 leukemia) | TGI (OVCAR-5 ovarian) | TGI (LOX IMVI melanoma) | TGI (HCC-2998 colon) | TGI (SK-MEL-28 melanoma) | TGI (MCF7 breast) | TGI (RXF 393 renal) | TGI (RPMI-8226 leukemia) | TGI (SNB-19 CNS) | TGI (NCI-H460 lung) | TGI (UACC-257 melanoma) | TGI (A549 NSCLC) | TGI (SF-539 CNS)
16.5 µM: TGI (NCI-H522 lung)
> 22.3 µM: TGI (BT-549 breast)

— PubChem BioAssay (NCI)
